Assay results: patent publication US10611750B2, “Tetrahydroquinoline compositions as bet bromodomain inhibitors” (FORMA Therapeutics, Inc., priority 2013, dated 2020)

Assays:
[1] = target: T1, BRD4 Bromodomain 1 (BRD4 BD1) (Homo sapiens, UniProt O60885); experiment: AlphaScreen binding assay, BRD4 BD1; details: His-tagged BRD4 BD1 50 nM, biotinylated H4 (1-21) K5/8/12/16 tetra-acetylated peptide 50 nM, compounds listed under IC50 range headings
T1 construct: 44-168 and BRD4 BD2
Outline: (§1)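 An AlphaScreen competition format was used with His-BRD4 BD1 or BD2 and biotin-H4 K5/8/12/16-acetyl peptide, each at matched final levels of 50 nM (BD1) or 100 nM (BD2). Incubation in HEPES/NaCl buffer with 0.1% BSA and 0.01% Triton X-100 ran ≥1 h before IC50 determination.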

[2] = target: T2, BRD4 Bromodomain 2 (BRD4 BD2) (Homo sapiens, UniProt O60885); experiment: AlphaScreen binding assay, BRD4 BD2; details: His-tagged BRD4 BD2 100 nM, biotinylated H4 (1-21) K5/8/12/16 tetra-acetylated peptide 100 nM, compounds listed under IC50 range headings
T2 construct: 333-460 were cloned, expressed, and purified to homogeneity
Outline: as §1

[3] = system: acute myelocytic leukemia (AML) cell line MV4-11; experiment: Oncology cell growth assay (3-day proliferation, CellTiter-Glo); assay type: cell-based; details: Homo sapiens, MV4-11, 72 h, MV4-11 cells, 3000 cells/well, compounds listed under IC50 range headings, read-out: MV411 IC50 (gIC50, inhibition of proliferation)
Outline: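 72 h, 37° C, 5% CO2; MV4-11, 3000 cells/well, RPMI 1640 + 10% FBS. Compound final 10, 3.3, 1.1, 0.37, 0.12, 0.041, 0.013, 0.0045 μM. Readout CellTiter-Glo luminescence; gIC50 by 4-parameter logistic fit, normalised to DMSO and no-cell background.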

| Compound | IC50 [1] [nM] | IC50 [2] [nM] | IC50 [3] [nM] |
| --- | --- | --- | --- |
| COC(=O)N1c2ccc(-c3cnn(C4CCNCC4)c3)c(Oc3cc(N4CCOCC4)ncn3)c2CC[C@@H]1C [I-530] | ≥ 10000 | ≥ 500 | > 1000 |
| CC(=O)N1c2ccc(-c3cnn(C4CCNCC4)c3)c(Oc3ncccc3C#N)c2CC[C@@H]1C [I-143, (S)-2-(1-acetyl-2-methyl-6-(1-(piperidin-4-yl)-1H-pyrazol-4-yl)-1,2,3,4-tetrahydroquinolin-5-yloxy)nicotinonitrile] | 100 to 1000 | 50 to 500 | < 500 |
| COC(=O)N1c2ccc(-c3cnn(C4CCNCC4)c3)c(OCC(C)C)c2CC[C@@H]1C [I-458] | 100 to 1000 | < 50 | < 500 |
| COC(=O)c1ccc(Oc2c(-c3cnn(C4CCNCC4)c3)ccc3c2CC[C@H](C)N3C(=O)OC)nc1 [I-537] | 1000 to 10000 | 50 to 500 | 500 to 1000 |
| C[C@H]1CCc2c(ccc(-c3cnn(C4CNC4)c3)c2Oc2cccc(F)c2F)N1C(=O)C1CC1 [I-268, (S)-(6-(1-(azetidin-3-yl)-1H-pyrazol-4-yl)-5-(2,3-difluorophenoxy)-2-methyl-3,4-dihydroquinolin-1(2H)-yl)(cyclopropyl)methanone] | 100 to 1000 | < 50 | < 500 |
| COC(=O)N1c2ccc(-c3cnn(C4CCNC4)c3)c(OC3CCC3)c2CC[C@@H]1C (stereo partly drawn) [I-108, (2S)-methyl 5-cyclobutoxy-2-methyl-6-(1-(pyrrolidin-3-yl)-1H-pyrazol-4-yl)-3,4-dihydroquinoline-1(2H)-carboxylate] | 100 to 1000 | < 50 | < 500 |
| CCCOc1c(-c2cnn(CCS(C)(=O)=O)c2)ccc2c1CC[C@H](C)N2C(C)=O [I-407] | 100 to 1000 | < 50 | < 500 |
| COC(=O)N1c2ccc(-c3cnn(CCO)c3)c(Oc3ncc(C)cn3)c2CC[C@@H]1C [I-584] | 1000 to 10000 | 50 to 500 | 500 to 1000 |
| COC(=O)N1c2ccc(-c3cnn(CC(C)(C)O)c3)c(Oc3ncc(F)cn3)c2CC[C@@H]1C [I-575] | 1000 to 10000 | 50 to 500 | 500 to 1000 |
| COC(=O)N1c2ccc(-c3cnn(C4CC4)c3)c(OCCF)c2CC[C@@H]1C [I-11, (S)-methyl 6-(1-cyclopropyl-1H-pyrazol-4-yl)-5-(2-fluoroethoxy)-2-methyl-3,4-dihydroquinoline-1(2H)-carboxylate] | 1000 to 10000 | < 50 | > 1000 |
| COC(=O)N1c2ccc(-c3cnn(C4CC4)c3)c(OCC(C)(C)CO)c2CC[C@@H]1C [I-17, (S)-methyl 6-(1-cyclopropyl-1H-pyrazol-4-yl)-5-(3-hydroxy-2,2-dimethylpropoxy)-2-methyl-3,4-dihydroquinoline-1(2H)-carboxylate] | 100 to 1000 | 50 to 500 | 500 to 1000 |
| CC(=O)N1c2ccc(-c3cnn(C4CC4)c3)c(Oc3ccc(Cl)cc3)c2CC[C@@H]1C [I-226, (S)-1-(5-(4-chlorophenoxy)-6-(1-cyclopropyl-1H-pyrazol-4-yl)-2-methyl-3,4-dihydroquinolin-1(2H)-yl)ethanone] | 100 to 1000 | 50 to 500 | < 500 |
| CC(=O)N1c2ccc(-c3cnn(C4CCNCC4)c3)c(Oc3ccccc3F)c2CC[C@@H]1C [I-258, (S)-1-(5-(2-fluorophenoxy)-2-methyl-6-(1-(piperidin-4-yl)-1H-pyrazol-4-yl)-3,4-dihydroquinolin-1 (2H)-yl)ethanone] | 100 to 1000 | < 50 | < 500 |
| CC(=O)N1c2ccc(-c3cnn(C4CCNCC4)c3)c(Oc3ncc(C)cn3)c2CC[C@@H]1C [I-144, (S)-1-(2-methyl-5-(5-methylpyrimidin-2-yloxy)-6-(1-(piperidin-4-yl)-1H-pyrazol-4-yl)-3,4-dihydroquinolin-1 (2H)-yl)ethanone] | 100 to 1000 | < 50 | < 500 |
| COC(=O)N1c2ccc(-c3cnn(CC(C)(C)O)c3)c(OCC3CCOCC3)c2CC[C@@H]1C [I-449] | 100 to 1000 | 50 to 500 | < 500 |
